For 30 molecules, IC50 results are on record in US10196364B2, “Pyrimidine carboxamides as sodium channel blockers” (Purdue Pharma L.P., priority 2013, dated 2019).

Chain of human Nav1.7 (Q15858 1-1977 isoform Q15858-3): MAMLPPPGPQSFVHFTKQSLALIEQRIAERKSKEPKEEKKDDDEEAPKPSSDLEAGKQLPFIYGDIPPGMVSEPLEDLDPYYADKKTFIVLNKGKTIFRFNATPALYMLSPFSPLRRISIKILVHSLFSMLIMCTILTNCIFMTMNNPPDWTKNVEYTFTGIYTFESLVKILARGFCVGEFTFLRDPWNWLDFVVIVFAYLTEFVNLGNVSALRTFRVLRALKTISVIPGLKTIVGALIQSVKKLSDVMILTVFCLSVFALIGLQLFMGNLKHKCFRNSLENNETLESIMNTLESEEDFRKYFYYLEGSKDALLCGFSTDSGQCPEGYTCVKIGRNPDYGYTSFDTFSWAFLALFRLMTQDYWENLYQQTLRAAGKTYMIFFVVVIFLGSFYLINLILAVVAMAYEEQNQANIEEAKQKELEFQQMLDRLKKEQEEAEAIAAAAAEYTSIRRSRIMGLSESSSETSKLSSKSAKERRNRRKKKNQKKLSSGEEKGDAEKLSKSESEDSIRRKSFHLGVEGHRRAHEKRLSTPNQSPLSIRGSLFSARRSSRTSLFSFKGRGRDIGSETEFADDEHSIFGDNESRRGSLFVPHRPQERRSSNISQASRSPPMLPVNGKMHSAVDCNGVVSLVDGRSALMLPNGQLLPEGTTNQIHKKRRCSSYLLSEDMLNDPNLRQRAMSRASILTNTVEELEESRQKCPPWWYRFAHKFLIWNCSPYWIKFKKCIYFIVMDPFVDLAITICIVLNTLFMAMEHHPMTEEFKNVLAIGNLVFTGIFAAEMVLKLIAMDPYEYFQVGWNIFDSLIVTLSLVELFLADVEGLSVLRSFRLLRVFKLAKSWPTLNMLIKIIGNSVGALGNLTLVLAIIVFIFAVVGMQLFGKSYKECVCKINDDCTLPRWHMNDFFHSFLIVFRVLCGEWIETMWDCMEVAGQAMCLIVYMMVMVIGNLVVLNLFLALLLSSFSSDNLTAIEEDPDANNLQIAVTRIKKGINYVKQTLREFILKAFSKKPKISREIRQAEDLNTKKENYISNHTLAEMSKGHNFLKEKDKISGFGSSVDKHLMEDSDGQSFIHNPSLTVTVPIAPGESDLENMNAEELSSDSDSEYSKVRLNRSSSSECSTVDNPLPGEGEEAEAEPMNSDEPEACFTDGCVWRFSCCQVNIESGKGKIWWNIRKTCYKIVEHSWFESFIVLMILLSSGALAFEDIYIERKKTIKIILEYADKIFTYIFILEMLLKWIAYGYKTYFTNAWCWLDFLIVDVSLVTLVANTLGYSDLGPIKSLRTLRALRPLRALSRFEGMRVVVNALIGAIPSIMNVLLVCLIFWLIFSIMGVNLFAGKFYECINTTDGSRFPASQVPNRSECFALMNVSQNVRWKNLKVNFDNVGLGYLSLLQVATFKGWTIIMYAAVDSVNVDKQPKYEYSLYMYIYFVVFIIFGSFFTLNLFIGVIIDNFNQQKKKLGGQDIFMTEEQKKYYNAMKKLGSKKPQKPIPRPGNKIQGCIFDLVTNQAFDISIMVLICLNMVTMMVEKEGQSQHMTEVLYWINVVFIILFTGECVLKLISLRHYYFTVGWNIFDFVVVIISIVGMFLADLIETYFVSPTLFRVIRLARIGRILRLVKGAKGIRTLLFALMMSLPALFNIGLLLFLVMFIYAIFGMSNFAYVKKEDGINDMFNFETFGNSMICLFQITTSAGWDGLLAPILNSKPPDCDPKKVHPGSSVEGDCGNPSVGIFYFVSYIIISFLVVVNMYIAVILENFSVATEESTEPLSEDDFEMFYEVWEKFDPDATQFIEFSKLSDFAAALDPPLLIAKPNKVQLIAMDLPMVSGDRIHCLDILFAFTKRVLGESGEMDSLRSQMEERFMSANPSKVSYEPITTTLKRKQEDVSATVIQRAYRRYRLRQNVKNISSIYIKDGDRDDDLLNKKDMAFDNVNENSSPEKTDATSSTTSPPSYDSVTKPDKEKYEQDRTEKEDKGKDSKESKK

This assay concerns the target human Nav1.7 (Homo sapiens, UniProt Q15858). The experiment in a line: FLIPR sodium dye assay (CoroNa Green AM Na+ dye, primary fluorescence assay) in recombinant Nav1.7/HEK293 cells. Type of assay: cell-based. The following applies: Table 6; CoroNa Green AM Na+ dye primary fluorescence assay; read-out: Nav1.7 Activity (μM) FLIPR assay IC50.
Regarding `COc1ccc(CNc2cc(C(N)=O)nc(-c3ccc(Oc4ccc(F)cc4)cc3)n2)c(OC)c1` [Cpd No. 178, 6-((2,4-dimethoxybenzyl)amino)-2-(4-(4-fluorophenoxy)phenyl)-pyrimidine-4-carboxamide], the IC50 is 1.74 µM. Then `NC(=O)c1cc(NCc2ncc[nH]2)nc(-c2ccc(Oc3ccc(F)cc3)cc2)n1` [Cpd No. 179, 6-(((1H-imidazol-2-yl)methyl)amino)-2-(4-(4-fluorophenoxy)phenyl)-pyrimidine-4-carboxamide], with > 20 µM; and `Cn1ccnc1CNc1cc(C(N)=O)nc(-c2ccc(Oc3ccc(F)cc3)cc2)n1` [Cpd No. 180, 2-(4-(4-fluorophenoxy)phenyl)-6-(((1-methyl-1H-imidazol-2-yl)methyl)-amino)pyrimidine-4-carboxamide], with 0.14 µM; and `NC(=O)c1cc(N[C@H]2CCNC2=O)nc(N2[C@@H]3CC[C@H]2C[C@H](Oc2ccc(F)cc2Cl)C3)n1` [Cpd No. 182, 2-((1R,3R,5S)-3-(2-chloro-4-fluorophenoxy)-8-azabicyclo[3.2.1]octan-8-yl)-6-(((S)-2-oxopyrrolidin-3-yl)amino)pyrimidine-4-carboxamide], with 0.35 µM.

Regarding `C[C@H](Oc1cc(C(N)=O)nc(-c2ccc(Oc3ccc(C(F)(F)F)cc3CN3CCCC3)cc2)n1)C(=O)O` [Cpd No. 184, (S)-2-((6-carbamoyl-2-(4-(2-(pyrrolidin-1-ylmethyl)-4-(trifluoromethyl)phenoxy)-phenyl)pyrimidin-4-yl)oxy)propanoic acid], the IC50 came out at 9.72 µM. Then `NC(=O)c1cc(N[C@H]2CCNC2=O)nc(-c2ccc(CC3CCC(C(F)(F)F)CN3)cc2)n1` (stereo partly drawn) [Cpd No. 185, 6-(((S)-2-oxopyrrolidin-3-yl)amino)-2-(4-((5-(trifluoromethyl)piperidin-2-yl)methyl)phenyl)pyrimidine-4-carboxamide], with 8.69 µM.

Turning to `NC(=O)c1cc(N[C@H]2CCNC2=O)nc(-c2ccc(Oc3ccc(F)cc3)cc2CN2CCOCC2)n1` [Cpd No. 187, (S)-2-(4-(4-fluorophenoxy)-2-(morpholinomethyl)phenyl)-6-((2-oxopyrrolidin-3-yl)amino)-pyrimidine-4-carboxamide], the IC50 is 5.67 µM. Under `CC1CN1Cc1cc(Oc2ccc(F)cc2)ccc1-c1nc(N[C@H]2CCNC2=O)cc(C(N)=O)n1` (stereo partly drawn) [Cpd No. 188, 2-(4-(4-fluorophenoxy)-2-((2-methylaziridin-1-yl)methyl)-phenyl)-6-(((S)-2-oxopyrrolidin-3-yl)amino)pyrimidine-4-carboxamide] stands 4.64 µM; under `NC(=O)c1cc(N[C@H]2CCNC2=O)nc(-c2ccc(C(O)c3ccc(C(F)(F)F)cn3)cc2)n1` (stereo partly drawn) [Cpd No. 189], > 20 µM; under `NC(=O)c1cc(N[C@H]2CCNC2=O)nc(N2[C@@H]3CC[C@H]2C[C@@H](Oc2ccc(C(F)(F)F)cc2CN2CCCC2)C3)n1` [Cpd No. 191, 6-(((S)-2-oxopyrrolidin-3-yl)amino)-2-((1R,3S,5S)-3-(2-(pyrrolidin-1-ylmethyl)-4-(trifluoromethyl)phenoxy)-8-azabicyclo[3.2.1]octan-8-yl)pyrimidine-4-carboxamide], 1.97 µM. Under `NC(=O)c1cc(N[C@H]2CCNC2=O)nc(-c2ccc(Oc3ccc(C(F)(F)F)cc3CN3CCOCC3)cc2)n1` [Cpd No. 192, (S)-2-(4-(2-(morpholinomethyl)-4-(trifluoromethyl)phenoxy)-phenyl)-6-((2-oxopyrrolidin-3-yl)amino)pyrimidine-4-carboxamide] stands 1.34 µM; under `CN1CCN(Cc2cc(C(F)(F)F)ccc2Oc2ccc(-c3nc(N[C@H]4CCNC4=O)cc(C(N)=O)n3)cc2)CC1` [Cpd No. 193], > 20 µM. Under `NC(=O)c1cc(N[C@H]2CCNC2=O)nc(-c2ccc(Oc3ccc(C(F)(F)F)cc3CN3CCCCC3)cc2)n1` [Cpd No. 194, (S)-6-((2-oxopyrrolidin-3-yl)amino)-2-(4-(2-(piperidin-1-ylmethyl)-4-(trifluoromethyl)-phenoxy)phenyl)pyrimidine-4-carboxamide] stands 2.18 µM; under `C[C@H](Nc1cc(C(N)=O)nc(-c2ccc(Oc3cnc(C4CC4)cn3)cc2)n1)C(N)=O` [Cpd No. 195, (S)-6-((1-amino-1-oxopropan-2-yl)amino)-2-(4-((5-cyclopropyl-pyrazin-2-yl)oxy)phenyl)-pyrimidine-4-carboxamide], > 20 µM; under `Cc1cnc(Oc2ccc(-c3nc(N[C@@H](C)C(N)=O)cc(C(N)=O)n3)cc2)cn1` [Cpd No. 196, (S)-6-((1-amino-1-oxopropan-2-yl)amino)-2-(4-((5-methyl-pyrazin-2-yl)oxy)phenyl)-pyrimidine-4-carboxamide], > 20 µM. Take `COc1cnc(Oc2ccc(-c3nc(N[C@H]4CCNC4=O)cc(C(N)=O)n3)cc2)cn1` [Cpd No. 197, (S)-2-(4-((5-methoxypyrazin-2-yl)oxy)phenyl)-6-((2-oxopyrrolidin-3-yl)amino)-pyrimidine-4-carboxamide]: the IC50 came out at 5.07 µM. As to `COc1cnc(Oc2ccc(-c3nc(N[C@@H](C)C(N)=O)cc(C(N)=O)n3)cc2)cn1` [Cpd No. 198, (S)-6-((1-amino-1-oxopropan-2-yl)amino)-2-(4-((5-methoxy-pyrazin-2-yl)oxy)phenyl)-pyrimidine-4-carboxamide], the IC50 is > 20 µM. Take `Cc1cnc(Oc2ccc(-c3nc(N[C@H]4CCNC4=O)cc(C(N)=O)n3)cc2)cn1` [Cpd No. 199, (S)-2-(4-((5-methylpyrazin-2-yl)oxy)phenyl)-6-((2-oxopyrrolidin-3-yl)amino)pyrimidine-4-carboxamide]: the IC50 worked out at 4.67 µM.

For `NC(=O)c1cc(N[C@H]2CCNC2=O)nc(-c2ccc(Oc3ccc(C(F)(F)F)cc3)cc2CN2CCOCC2)n1` [Cpd No. 200, (S)-2-(2-(morpholinomethyl)-4-(4-(trifluoromethyl)phenoxy)-phenyl)-6-((2-oxopyrrolidin-3-yl)amino)pyrimidine-4-carboxamide], the IC50 came out at 0.28 µM. For the molecule `CN(C)Cc1cc(Oc2ccc(C(F)(F)F)cc2)ccc1-c1nc(N[C@H]2CCNC2=O)cc(C(N)=O)n1` [Cpd No. 201, (S)-2-(2-((dimethylamino)-methyl)-4-(4-(trifluoromethyl)-phenoxy)phenyl)-6-((2-oxopyrrolidin-3-yl)-amino)pyrimidine-4-carboxamide], the IC50 was > 20 µM. Consider `NC(=O)c1cc(N[C@H]2CCNC2=O)nc(-c2ccc(Oc3ccc(C(F)(F)F)cc3)cc2CN2CCCCC2)n1` [Cpd No. 202, (S)-6-((2-oxopyrrolidin-3-yl)amino)-2-(2-(piperidin-1-ylmethyl)-4-(4-(trifluoromethyl)-phenoxy)phenyl)pyrimidine-4-carboxamide], for which the IC50 turned out to be 0.72 µM. Then `CN1CCN(Cc2cc(Oc3ccc(C(F)(F)F)cc3)ccc2-c2nc(N[C@H]3CCNC3=O)cc(C(N)=O)n2)CC1` [Cpd No. 203, (S)-2-(2-((4-methylpiperazin-1-yl)methyl)-4-(4-(trifluoro-methyl)phenoxy)-phenyl)-6-((2-oxopyrrolidin-3-yl)amino)-pyrimidine-4-carboxamide], with 0.76 µM; and `N#Cc1cc(C(F)(F)F)ccc1O[C@H]1C[C@H]2CC[C@@H](C1)N2c1nc(N[C@H]2CCNC2=O)cc(C(N)=O)n1` [Cpd No. 204, 2-((1R,3S,5S)-3-(2-cyano-4-(trifluoromethyl)phenoxy)-8-azabicyclo-[3.2.1]octan-8-yl)-6-(((S)-2-oxopyrrolidin-3-yl)amino)pyrimidine-4-carboxamide], with > 20 µM; and `NC(=O)c1cc(N[C@H]2CCNC2=O)nc(-c2ccc(Oc3ccc(C(F)(F)F)c(C4=CCNCC4)c3)cc2)n1` [Cpd No. 205, (S)-6-((2-oxopyrrolidin-3-yl)amino)-2-(4-(3-(1,2,3,6-tetrahydropyridin-4-yl)-4-(trifluoromethyl)phenoxy)phenyl)pyrimidine-4-carboxamide], with > 20 µM.

In the case of `NC(=O)c1cc(N[C@H]2CCNC2=O)nc(-c2ccc(Oc3ccc(C(F)(F)F)cc3C3=CCNCC3)cc2)n1` [Cpd No. 206, (S)-6-((2-oxopyrrolidin-3-yl)amino)-2-(4-(2-(1,2,3,6-tetrahydropyridin-4-yl)-4-(trifluoromethyl)phenoxy)phenyl)pyrimidine-4-carboxamide], the IC50 worked out at 5.28 µM.

With `CN1CC=C(c2cc(C(F)(F)F)ccc2Oc2ccc(-c3nc(N[C@H]4CCNC4=O)cc(C(N)=O)n3)cc2)CC1` [Cpd No. 207, (S)-2-(4-(2-(1-methyl-1,2,3,6-tetrahydropyridin-4-yl)-4-(trifluoromethyl)phenoxy)phenyl)-6-((2-oxopyrrolidin-3-yl)amino)pyrimidine-4-carboxamide], the half-inhibitory concentration (IC50) worked out at 4.7 µM. Under `CCN(CC)Cc1cc(C(F)(F)F)ccc1Oc1ccc(-c2nc(N[C@H]3CCNC3=O)cc(C(N)=O)n2)cc1` [Cpd No. 208, (S)-2-(4-(2-((diethylamino)-methyl)-4-(trifluoromethyl)-phenoxy)phenyl)-6-((2-oxopyrrolidin-3-yl)amino)pyrimidine-4-carboxamide] stands 0.75 µM; under `NC(=O)c1cc(N[C@H]2CCNC2=O)nc(-c2ccc(Oc3ccc(C(F)(F)F)cc3)c(N3CCCCC3)c2)n1` [Cpd No. 209, (S)-6-((2-oxopyrrolidin-3-yl)amino)-2-(3-(piperidin-1-yl)-4-(4-(trifluoromethyl)phenoxy)-phenyl)pyrimidine-4-carboxamide], > 20 µM; under `CN1CCN(c2cc(Oc3ccc(-c4nc(N[C@H]5CCNC5=O)cc(C(N)=O)n4)cc3)ccc2C(F)(F)F)CC1` [Cpd No. 210, (S)-2-(4-(3-(4-methylpiperazin-1-yl)-4-(trifluoromethyl)phenoxy)phenyl)-6-((2-oxopyrrolidin-3-yl)amino)pyrimidine-4-carboxamide], 1.94 µM.

Turning to `CN1CCN(c2cc(C(F)(F)F)ccc2Oc2ccc(-c3nc(N[C@H]4CCNC4=O)cc(C(N)=O)n3)cc2)CC1` [Cpd No. 211, (S)-2-(4-(2-(4-methylpiperazin-1-yl)-4-(trifluoromethyl)-phenoxy)phenyl)-6-((2-oxopyrrolidin-3-yl)amino)-pyrimidine-4-carboxamide], the IC50 came out at 4.16 µM.
